Assay: Stability of cannabinoid compounds and Vitamin E components in Beverage 2 (AB Red) by LCMSMS
Format: physicochemical
Procedure: The stability of the plant-derived cannabinoid compounds and Vitamin E components of the beverage stored 8° C. and at room temperature (21-25° C.) were monitored, over a period of 570 days via Liquid Chromatography-tandem Mass Spectrometry [LCMSMS, AGilent 6590, C18, 3×50 mm, 2.7 m (Agilent InfinityLab Poroshell 120 EC-C18), Electrospray Ionization detector]. The LCMSMS was calibrated for 0-50 ng/ml cannabinoids with the same resin material used in the preparation of the concentrates. At each time period, 100 ml of beverage was diluted with 10 ml of methanol and injected into the LCMSMS for analysis.

CCCCCc1cc(O)c2c(c1)OC(C)(C)[C@@H]1CCC(C)=C[C@@H]21 [D9 THC, delta-9-tetrahydrocannabinol, reference compound]
11.8 µg/mL: Stability of Plant-Derived Cannabinoid Compounds in AB Red (stored at 8° C., 570 days) | Stability of Plant-Derived Cannabinoid Compounds in AB Red (stored at 21-25° C., 480 days) | Stability of Plant-Derived Cannabinoid Compounds in AB Red (stored at 21-25° C., 570 days)
12.3 µg/mL: Stability of Plant-Derived Cannabinoid Compounds in AB Red (stored at 8° C., 210 days) | Stability of Plant-Derived Cannabinoid Compounds in AB Red (stored at 21-25° C., 510 days)
12.4 µg/mL: Stability of Plant-Derived Cannabinoid Compounds in AB Red (stored at 8° C., 120 days) | Stability of Plant-Derived Cannabinoid Compounds in AB Red (stored at 8° C., 240 days) | Stability of Plant-Derived Cannabinoid Compounds in AB Red (stored at 8° C., 300 days) | Stability of Plant-Derived Cannabinoid Compounds in AB Red (stored at 8° C., 390 days) | Stability of Plant-Derived Cannabinoid Compounds in AB Red (stored at 8° C., 420 days) | Stability of Plant-Derived Cannabinoid Compounds in AB Red (stored at 8° C., 450 days) | Stability of Plant-Derived Cannabinoid Compounds in AB Red (stored at 21-25° C., 5 days) | Stability of Plant-Derived Cannabinoid Compounds in AB Red (stored at 21-25° C., 16 days) | Stability of Plant-Derived Cannabinoid Compounds in AB Red (stored at 21-25° C., 26 days) | Stability of Plant-Derived Cannabinoid Compounds in AB Red (stored at 21-25° C., 30 days) | Stability of Plant-Derived Cannabinoid Compounds in AB Red (stored at 21-25° C., 120 days) | Stability of Plant-Derived Cannabinoid Compounds in AB Red (stored at 21-25° C., 150 days) | Stability of Plant-Derived Cannabinoid Compounds in AB Red (stored at 21-25° C., 210 days) | Stability of Plant-Derived Cannabinoid Compounds in AB Red (stored at 21-25° C., 300 days)
12.0 µg/mL: Stability of Plant-Derived Cannabinoid Compounds in AB Red (stored at 8° C., 510 days)
high degree of stability: stability over the entire period (in words) (AB Red stored at 8° C., 570 days) | stability over the entire period (in words) (AB Red stored at 21-25° C., 570 days)
12.5 µg/mL: Stability of Plant-Derived Cannabinoid Compounds in AB Red (stored at 8° C., 60 days) | Stability of Plant-Derived Cannabinoid Compounds in AB Red (stored at 8° C., 360 days) | Stability of Plant-Derived Cannabinoid Compounds in AB Red (stored at 21-25° C., 10 days) | Stability of Plant-Derived Cannabinoid Compounds in AB Red (stored at 21-25° C., 24 days) | Stability of Plant-Derived Cannabinoid Compounds in AB Red (stored at 21-25° C., 25 days) | Stability of Plant-Derived Cannabinoid Compounds in AB Red (stored at 21-25° C., 240 days) | Stability of Plant-Derived Cannabinoid Compounds in AB Red (stored at 21-25° C., 270 days)
12.9 µg/mL: Stability of Plant-Derived Cannabinoid Compounds in AB Red (stored at 8° C., 0 days) | Stability of Plant-Derived Cannabinoid Compounds in AB Red (stored at 8° C., 12 days) | Stability of Plant-Derived Cannabinoid Compounds in AB Red (stored at 8° C., 15 days) | Stability of Plant-Derived Cannabinoid Compounds in AB Red (stored at 8° C., 23 days) | Stability of Plant-Derived Cannabinoid Compounds in AB Red (stored at 8° C., 24 days) | Stability of Plant-Derived Cannabinoid Compounds in AB Red (stored at 8° C., 25 days) | Stability of Plant-Derived Cannabinoid Compounds in AB Red (stored at 8° C., 30 days) | Stability of Plant-Derived Cannabinoid Compounds in AB Red (stored at 21-25° C., 0 days) | Stability of Plant-Derived Cannabinoid Compounds in AB Red (stored at 21-25° C., 11 days) | Stability of Plant-Derived Cannabinoid Compounds in AB Red (stored at 21-25° C., 17 days) | Stability of Plant-Derived Cannabinoid Compounds in AB Red (stored at 21-25° C., 22 days) | Stability of Plant-Derived Cannabinoid Compounds in AB Red (stored at 21-25° C., 23 days)
12.6 µg/mL: Stability of Plant-Derived Cannabinoid Compounds in AB Red (stored at 8° C., 8 days) | Stability of Plant-Derived Cannabinoid Compounds in AB Red (stored at 8° C., 17 days) | Stability of Plant-Derived Cannabinoid Compounds in AB Red (stored at 8° C., 180 days) | Stability of Plant-Derived Cannabinoid Compounds in AB Red (stored at 8° C., 270 days) | Stability of Plant-Derived Cannabinoid Compounds in AB Red (stored at 21-25° C., 3 days) | Stability of Plant-Derived Cannabinoid Compounds in AB Red (stored at 21-25° C., 360 days)
12.1 µg/mL: Stability of Plant-Derived Cannabinoid Compounds in AB Red (stored at 21-25° C., 330 days) | Stability of Plant-Derived Cannabinoid Compounds in AB Red (stored at 21-25° C., 390 days)
12.7 µg/mL: Stability of Plant-Derived Cannabinoid Compounds in AB Red (stored at 8° C., 3 days) | Stability of Plant-Derived Cannabinoid Compounds in AB Red (stored at 8° C., 9 days) | Stability of Plant-Derived Cannabinoid Compounds in AB Red (stored at 8° C., 16 days) | Stability of Plant-Derived Cannabinoid Compounds in AB Red (stored at 8° C., 19 days) | Stability of Plant-Derived Cannabinoid Compounds in AB Red (stored at 8° C., 22 days) | Stability of Plant-Derived Cannabinoid Compounds in AB Red (stored at 8° C., 26 days) | Stability of Plant-Derived Cannabinoid Compounds in AB Red (stored at 8° C., 29 days) | Stability of Plant-Derived Cannabinoid Compounds in AB Red (stored at 8° C., 330 days) | Stability of Plant-Derived Cannabinoid Compounds in AB Red (stored at 21-25° C., 8 days) | Stability of Plant-Derived Cannabinoid Compounds in AB Red (stored at 21-25° C., 15 days) | Stability of Plant-Derived Cannabinoid Compounds in AB Red (stored at 21-25° C., 29 days)
12.8 µg/mL: Stability of Plant-Derived Cannabinoid Compounds in AB Red (stored at 8° C., 10 days) | Stability of Plant-Derived Cannabinoid Compounds in AB Red (stored at 8° C., 11 days) | Stability of Plant-Derived Cannabinoid Compounds in AB Red (stored at 8° C., 18 days) | Stability of Plant-Derived Cannabinoid Compounds in AB Red (stored at 8° C., 150 days) | Stability of Plant-Derived Cannabinoid Compounds in AB Red (stored at 21-25° C., 9 days) | Stability of Plant-Derived Cannabinoid Compounds in AB Red (stored at 21-25° C., 18 days) | Stability of Plant-Derived Cannabinoid Compounds in AB Red (stored at 21-25° C., 19 days) | Stability of Plant-Derived Cannabinoid Compounds in AB Red (stored at 21-25° C., 90 days) | Stability of Plant-Derived Cannabinoid Compounds in AB Red (stored at 21-25° C., 180 days)
12.2 µg/mL: Stability of Plant-Derived Cannabinoid Compounds in AB Red (stored at 8° C., 480 days) | Stability of Plant-Derived Cannabinoid Compounds in AB Red (stored at 21-25° C., 60 days) | Stability of Plant-Derived Cannabinoid Compounds in AB Red (stored at 21-25° C., 420 days) | Stability of Plant-Derived Cannabinoid Compounds in AB Red (stored at 21-25° C., 450 days) | Stability of Plant-Derived Cannabinoid Compounds in AB Red (stored at 21-25° C., 540 days)
13.0 µg/mL: Stability of Plant-Derived Cannabinoid Compounds in AB Red (stored at 8° C., 1 days) | Stability of Plant-Derived Cannabinoid Compounds in AB Red (stored at 8° C., 2 days) | Stability of Plant-Derived Cannabinoid Compounds in AB Red (stored at 8° C., 5 days) | Stability of Plant-Derived Cannabinoid Compounds in AB Red (stored at 8° C., 90 days) | Stability of Plant-Derived Cannabinoid Compounds in AB Red (stored at 21-25° C., 1 days) | Stability of Plant-Derived Cannabinoid Compounds in AB Red (stored at 21-25° C., 2 days) | Stability of Plant-Derived Cannabinoid Compounds in AB Red (stored at 21-25° C., 12 days)
11.9 µg/mL: Stability of Plant-Derived Cannabinoid Compounds in AB Red (stored at 8° C., 540 days)
